Experimental data published in patent US5723463A, “Pyrido [3,2-E]pyrazinones with anti-asthmatic action and processes for their manufacture” (ASTA Medica Aktiengesellschaft, priority 1995, dated 1998).
pIC50: −log10 of the molar value.

Columns and labels:
PDE IV = PDE IV inhibition (in vitro), cAMP-specific PDE of cytosol of human polymorphonuclear leucocytes; format: biochemical; details: substrate 0.5 μM cAMP, motapizon 1 μM
Method: (§1) Phosphodiesterase (PDE) activity is determined with a few modifications (Bauer, A. C.; Schwabe, U., An improved assay of cyclic 3',5'-nucleotide phosphodiesterase with QAE Sephadex A-25. Naunyn-Schmiedeberg's Arch. Pharmacol. 311 193-198 (1980)) after the method described by Thompson et al. (Thompson, W. J.; Appleman, M. M., Assay of cyclic nucleotide phosphodiesterase and resolution of multiple molecular forms of the enzyme. Adv. Cycl. Nucl. Res. 10 69-92 (1979)) The reaction mixture contains 40 mM Tris-HCl (pH 7.4), 5 mM MgCl2, 0.5 μM cAMP or cGMP, [^3 H]cAMP or [^3 H]cGMP (approx. 20,000 cpm/test) and the other components needed to record the individual isoenzymes (see below). The final volume is 200 μl. Test substances are prepared as stock solutions in DMSO. The DMSO concentration in the reaction mixture is the same or less than 1% v/v. The PDE activity is not influenced at this DMSO concentration. […] The radioactivity of the individual fractions is recorded using scintigraphy.
The PDE IV (cAMP-specific) activity is determined after the method described by Schudt et al. (Schudt C.; Winter S.; Forderkurz S.; Hatzelmann A.; Ullrich V., Influence of selective phosphodiesterase inhibitors on human neutrophil functions and levels of cAMP and Ca. Naunyn-Schmiedeberg's Arch. Pharmacol. 344, 682-690 (1991)) describe a method in the cytosol of human polymorpho-nuclear leucocytes. […]

PDE V = target: T1, PDE V (Homo sapiens, UniProt O76074); assay: PDE V inhibition (in vitro), cGMP-specific PDE isolated from human blood platelets; format: biochemical; details: substrate 0.5 μM cGMP
T1 construct: PDE V (cGMP-specific) is isolated from human blood platelets; from tissue; host or cells: human blood platelets
Method: as §1, with “concentration. After pre-incubation for 5 minutes at 37° C. the reaction is started by adding the substrate (cAMP or cGMP). The samples are incubated for a further 15 minutes at 37° C. The reaction is stopped by adding 50 μl 0.2N HCl. The samples remain in the ice for a further 10 minutes.” for “concentration.”, “scintigraphy. […]” for “scintigraphy.”

[1] = test system: Histamine precontracted trachea; assay: Influence on the trachea precontracted using histamine; details: Cavia porcellus, guinea pig trachea
Method: Guinea pigs are exsanguinated under narcosis. The trachea is then prepared free from adjacent tissue and cut into five equal parts (at least 3 trachea-rings wide). The trachea parts are suspended in a bath filled with a nutrient solution (Krebs-Henseleit). The strength of contraction of the trachea can be measured using force transducers. After suspension, a 15-minute acclimatisation period is allowed. The trachea is then totally relaxed using isoprenaline (1×10^-7 mol/l). The bath vessel is then rinsed. A contraction maximum is triggered using metacholine (10×10^-5 mol/l). The bath vessel is then rinsed again. Histamine ([…]) is then added. The contraction maximum is reached after approx. 10 minutes. The test substance is then added to the bath in increasing concentration and the contraction-triggering effect determined in percent to an untreated control. The mean contraction-triggering concentration is calculated using regression apparatuses. To check the function of the organs, isoprenaline (1×10^-5 mol/l) is then added to the bath to see whether the organs are still able to relax.

[2] = test system: Ovalbumin-induced eosinophilia; assay: Asthmatic late phase reaction: ovalbumin-induced eosinophilia in guinea pigs (BAL); format: in vivo, guinea pig; details: 1 mg/kg i.p., 2 hours before allergen challenge, BAL 24 hours after
Method: Male guinea pigs (250-300 g, Pirbright white, Charles River Wiga) are actively sensitised by s.c. injection of ovalbumin (10 μg+100 mg aluminium hydroxide) and boosted 2 weeks later. One week after the boosting (10 μg+100 mg aluminium hydroxide) the animals are exposed of an aerosol of nebulised 0.5 % ovalbumin solution for 20 seconds. 24 hours later, the bronchoalveolar lavage (BAL) is carried out using 2×5 ml sodium chloride solution on animals sacrificed with an overdose of pentobarbital. The lavage liquid is pooled and centrifuged for 10 minutes. The cell pellet is suspended in 1 ml physiological sodium chloride solution and the eosinophils are counted microscopically in a counting chamber using a Becton-Dickinson eosinophil kit. The eosinophils are counted for each guinea pig. The mean value is calculated for each group. The inhibition of the eosinophils for the group treated with substance is obtained using the formula:
(A-C)-(B-C)/(A-C)×100=% inhibition
A=Eosinophils in the untreated control group challenged with ovalbumin
B=Eosinophils in the group treated with the substance and challenged with ovalbumin
C=Eosinophils in the control group not challenged with ovalbumin
The substance was applied 2 hours before allergen challenge p,o, (in 1% methocel) or i.p. (in 0.5% methocel). The control groups receive 1% methocel p.o. or 0.5% methocel i.p. 2 hours before allergen challenge.

Work on `CCCn1c(=O)c2c(C)nc(CC)n2c2nc(OC)ccc21` [embodiment 1, 1-ethyl-8-methoxy-3-methyl-5-propyloimidazo[1,5-a]pyrido[3,2-e]-pyrazinone] yielded a pIC50 (PDE IV) of 7.00, a pIC50 (PDE V) of 7.02 and a pIC50 [1] of 6.15. For the same molecule, the “Ovalbumin-induced eosinophilia: % inhibition of eosinophils” value [2] was 74%.
